Entries after “also recorded” stand apart in the source; their conditions may differ.
Experiments:
Assay type in all cases: cell-based, human
ICAM-1 = ICAM-1 surface protein expression on NHBE cells by flow cytometry; conditions: 100 ng/ml, 48 hours, mean±SD (n=4)
Procedure: FIG. 4. Effect of ML-1 on ICAM-1 surface expression on NHBE cells by Flow Cytometry. NHBE cells were treated for 48 hours under following conditions: medium only, rIL-17 (100 ng/ml), purified His-tagged protein (Positope, 100 ng/ml), or ML-1 (100 ng/ml) as indicated. The mean fluorescence intensity of ICAM-1 surface expression was measured. The experiment was conducted four times. The results shown are from a representative experiment. * p<0.01.
To determine whether ML-1 is able to induce ICAM-1 expression on NHBE cells, surface expression of ICAM-1 on NHBE cells was measured and the effects of ML-1 and IL-17 were compared.
NHBE cells were treated with IL-17 (100 ng/ml), ML-1 (100 ng/ml), or a control His protein (Positope, 100 ng/ml). The cells were harvested following treatment with 0.1% trypsin-0.02% EDTA at 37° C. for 6 minutes and suspended in PBS containing 2% BSA and 0.02 % sodium azide. One million cells were incubated with a mouse anti-human ICAM-1 monoclonal antibody (R&D Systems, Minneapolis, Minn.) on ice for 30 minutes. […] After three additional washes in PBS, the cells were resuspended in PBS and immediately analyzed with a FACScan flow cytometer (Becton Dickinson, Mountain View, Calif.). […] Indices are expressed as mean±SD (n=4).

IL-8 [1] = experiment: IL-8 expression in NHBE cells (RT-PCR and ELISA); conditions: 100 ng/ml
From the text: FIGS. 3A-3C. FIG. 3A, Expression of ML-1 protein in COS-7 cells. COS-7 cells were transfected with a gene construct containing full-length ML-1 sequence and a tag sequence encoding poly (His) peptide. ML-1-His fusion proteins were purified from supernatants of the transfected cells using a His affinity column, run on an 8-16% SDS-polyacrylamide gel under reducing conditions, and analyzed by Western Blot using anti-His monoclonal antibody. Lane 1 represents a mock-transfected sample. Lane 2 represents an ML-1-transfected sample. The location of a 19.5 kd marker is indicated. FIG. 3B, Effect of ML-1 on IL-8 gene expression. Human primary bronchial epithelial cells (NHBE cells) were treated with different stimuli. The cells were harvested 4 hours after stimulation, and total RNA was extracted and subjected to RT-PCR using IL-8 and G3PDH primers. Lane 1, medium only; lane 2, cells treated with rIL-17 (100 ng/ml); lane 3, cells treated with purified His-tagged protein (Positope, 100 ng/ml); lane 4, cells treated with ML-1 (100 ng/ml). FIG. 3C, Effect of ML-1 on IL-8 protein production. NHBE cells were treated with the same stimuli used in FIG. 3B, and the supernatants were harvested 48 hours after stimulation.
Primary human bronchial epithelial (NHBE) cells were purchased from Clonetics (San Diego, Calif.) and cultured according to the manufacturer's instructions. The cells were treated with IL-17 (100 ng/ml), ML-1 (100 ng/ml), or a control His-tagged protein (Positope, 100 ng/ml; Invitrogen, Carlsbad, Calif.). The affinity-purified control His protein was dissolved in the same buffer as ML-1. Total RNA was extracted using Rneasy (Qiagen, Chatsworth, Calif.) from 1×10^6 cells 4 hours after stimulation or exchange of media. The protocol for cDNA synthesis was that described above. For PCR, the sequences of PCR primers were based on the human IL-8 cDNA sequence. The sequences of PCR primers for IL-8 were: forward, 5′-TCTGCAGCTCTGTGTGAAG-3′ (SEQ ID NO:14) and reverse, 5′-TAATTTCTGTGTTGGCGCA-3′ (SEQ ID NO:15). The amplification reaction was performed for 23 cycles with denaturation at 94° C. for 45 seconds, annealing at 56° C. for 45 seconds, and extension at 72° C. for 45 seconds PCR products were detected by ethidium bromide staining. The expected size for IL-8 was 154 basepairs. IL-8 protein levels in the collected supernatants were determined with a commercially available ELISA kit (Biosource, Camarillo, Calif.) according to the manufacturer's instructions.

IL-6 [2] = experiment: IL-6 expression in PBECs (ELISA, RT-PCR)
Procedure: (§1) FIG. 5. Analysis of IL-6 (FIG. 5A) and IL-8 (FIG. 5B) expression in primary bronchial epithelial cells (PBECs) and human umbilical vein endothelial cells (HUVECs) stimulated by ML-1. The IL-6 and IL-8 protein release in the supernatant was determined by ELISA as described in Example 8. The results were expressed as mean+SD (n=6). *p<0.05 was considered significant vs control.
(§2) FIG. 7A-7D. Effect of PD98059 on IL-6 (FIG. 7A) and IL-8 (FIG. 7B) protein production in PBECs and HUVECs. The cells were preincubated with varying concentrations of PD98059, SB202190, or DMSO vehicle control for 1 hour, followed by stimulation with ML-1 (100 ng/ml) for 24 hours. The results are expressed as the mean+SD (n=6). *P<0.05 when compared to cultures without the addition of PD98059. FIGS. 7C and 7D. Semi-quantitative analysis of gene expression for IL-6 (FIG. 7C) and IL-8 (FIG. 7D) by RT-PCR. The cells were preincubated as described above and treated with ML-1 for 4 hours. RT-PCR was performed as described in Example 8. The results shown are representative of three separate experiments.
(§3) Primary bronchial epithelial cells (PBECs) were purchased from Clonetics (San Diego, Calif.) and cultured in bronchial epithelial basal medium (Clonetics) containing 0.5 ng/ml human recombinant epidermal growth factor (EGF), 52 mg/ml bovine pituitary extract, 0.1 mg/ml retinoic acid, 0.5 mg/ml hydrocortisone, 5 mg/ml insulin, 10 mg/ml transferrin, 0.5 mg/ml epinephrine, 6.5 ng/ml triiodothyronine, […] gentamicin, and 50 pg/ml amphotericin-B (Clonetics). […]
(§4) The amplification reaction was performed for 23 cycles with denaturation at 94° C. for 45 seconds, annealing at 56° C. for 45 seconds, and extension at 72° C. for 45 seconds. PCR products were detected by ethidium bromide staining and normalized by the intensity of an amplified housekeeping gene, G3PDH (see above). […] IL-6 and IL-8 protein levels in the collected supernatants were determined with a commercially available ELISA kit (Biosource, Camarillo, Calif.) according to the manufacturer's instructions.

IL-8 [3] = experiment: IL-8 expression in PBECs (ELISA, RT-PCR)
Procedure: as §1, §2, §3, §4

IL-6 [4] = experiment: IL-6 expression in HUVECs (ELISA, RT-PCR)
Procedure: as §1, §2
(§5) Human umbilical vein endothelial cells (HUVECs) were obtained from Clonetics and cultured in endothelial cell growth media (EGM; Clonetics) containing 12 μg/ml bovine brain extract, 10 ng/ml EGF, 1 μg/ml hydrocortisone, 50 μg/ml gentimicin, 50 ng/ml amphotericin B, and 5% FBS amphotericin-B (Clonetics).
(§6) PBECs and HUVECs were treated with ML-1 100 ng/ml of ML-1 for various time points. Total RNA was extracted using RNeasy (Qiagen) from 1×10^6 cells 4 hours after stimulation or exchange of media. […]
as §4

IL-8 [5] = experiment: IL-8 expression in HUVECs (ELISA, RT-PCR)
Procedure: as §1, §2, §5, §6, §4

ERK1/2 [6] = experiment: Western blotting of ERK1/2 phosphorylation in PBECs; conditions: pre-incubation with 10 μM for 1 hour, then ML-1 for 20 minutes
Procedure: (§7) FIGS. 6A-6D. Kinetic activation of ERK1/2 by ML-1 in PBECs (FIG. 6A) and HUVECs (FIG. 6B). The cells were incubated with or without ML-1 (100 ng/ml) for different time points as indicated. Western blotting analysis was performed by using antibodies against different MAP kinases as described in Example 8. FIGS. 6C and 6D. Effect of PD98059 on ML-1-induced phosphorylation of ERK1/2 in PBECs (FIG. 6C) and HUVECs (FIG. 6D). The cells were preincubated with PD98059 ([…]) or DMSO vehicle control for 1 hour, followed by stimulation of PBECs and HUVECs with medium or ML-1 for 20 minutes or 10 minutes, respectively. The results shown are representative of three separate experiments.
(§8) For analysis of activation of MAP kinases, PBECs were treated with IL-17 (100 ng/ml) for various time periods, with or without the MEK 1/2 inhibitor PD98059 ([…]; Calbiochem, La Jolla, Calif.) (15), the p38 inhibitor SB202190 (0.5-10 μM; ref. 16), or a vehicle control, DMSO (Me2SO) for 1 hour. […] Following the treatment, the cells were washed with ice-cold PBS. Cell pellets were immediately lysed in cold lysis buffer [20 mM Tris (pH 7.4), 4 mM EDTA, 2 mM EGTA, 1 mM PMSF, […] aprotinin, 200 mg/ml leupeptin, 50 mM NaF, 5 mM NaRP2O7, 1 mM Na3VO4, and 1% Nonidet P40; all purchased from Sigma]. Extracts (1×10^6 cell equivalents/lane) were suspended with an equal volume of 2× loading buffer [0.1 M Tris-HCl (pH 6.8)], 4% SDS, 0.005% bromophenol blue, and 20% glycerol) containing 2-ME (0.7 M) and subjected to 4-20% Tris-glycine gel electrophoresis (NOVEX, San Diego, Calif.). Gels were then transferred to PVDF membranes (BIO-RAD, Hercules, Calif.) with a Trans Blot apparatus (NOVEX). The membranes were immersed overnight in This-buffered saline/Tween 20 containing 5% nonfat dry skim milk (Carnation, Los Angeles, Calif.).
(§9) Immunoreactive proteins were detected using antibodies against various kinases and phosphorylated kinases. […] Western blotting detection reagents (Amersham) and Hyper ECL luminescence detection film (Amersham) were used. […]

ERK1/2 [7] = experiment: Western blotting of ERK1/2 phosphorylation in HUVECs; conditions: pre-incubation with 10 μM for 1 hour, then ML-1 for 10 minutes
Procedure: as §7, §8, §9

[8] = 1 hour preincubation, varying concentrations, ML-1 100 ng/ml 24 hours
[9] = preincubation, ML-1 for 4 hours, semi-quantitative RT-PCR

IL-17: human IL-17, T-cell derived homodimeric cytokine, used as comparator
ICAM-1 surface expression, mean fluorescence intensity (MFI) (ICAM-1): 10.07±1.22 | IL-8 protein expression (IL-8 [1]; ELISA of supernatants, 48 hours): enhanced | IL-8 transcript expression (IL-8 [1]; RT-PCR): enhanced

COc1cccc(-c2cc(=O)c3ccccc3o2)c1N [PD98059]
effect on ML-1-induced IL-6 protein production (IL-6 [2]; [8]): inhibited; also recorded: not completely inhibited | effect on ML-1-induced IL-6 gene expression (IL-6 [2]; [9]): Decreased levels | effect on ML-1-induced IL-8 protein production (IL-8 [3]; [8]): inhibited; also recorded: not completely inhibited | effect on ML-1-induced IL-8 gene expression (IL-8 [3]; [9]): Decreased levels | effect on ML-1-induced IL-6 protein production (IL-6 [4]; [8]): inhibited; also recorded: not completely inhibited | effect on ML-1-induced IL-6 gene expression (IL-6 [4]; [9]): Decreased levels | effect on ML-1-induced IL-8 protein production (IL-8 [5]; [8]): inhibited; also recorded: not completely inhibited | effect on ML-1-induced IL-8 gene expression (IL-8 [5]; [9]): Decreased levels | effect on ML-1-induced activation of ERK1/2 (ERK1/2 [6]): diminished | effect on ML-1-induced activation of ERK1/2 (ERK1/2 [7]): diminished

— patent publication US20060073572A1, “Cytokine structurally related to IL-17” (The Johns Hopkins University, priority 2001, published 2006)
